In a melting point compilation (Tetko et al.; mined from patent text by program, amines drawn as free bases though some values may be those of a salt):

Row | melting point [°C] | Structure (SMILES)
1 | > 260 | O=C(O)c1ccc2oc(-c3ccc(Cl)c(Cl)c3)cc2c1
2 | 179 to 182 | O=[N+]([O-])c1cnn2ccccc12
3 | 127 | C[C@@H]1CCNC[C@@H]1N(C)c1nccc2[nH]ccc12
4 | 106 to 108 | C=C1CCCCC1(C(=S)NC)c1cccnc1 (configuration not stated)
5 | 74 to 76 | CC(C)NCC(O)COc1nccnc1C1CNCCO1 (configuration not stated)
6 | 166 | COC(=O)C1c2ccccc2N(C)c2ccc(Cl)cc21 (configuration not stated)
7 | 99 to 101 | O=C1CCCNc2ccc(Br)cc21
8 | 130 to 131 | COc1ccnc2c1C(=O)CC(c1ccccc1)C2 (configuration not stated)
9 | 197 to 198 | O=C(O)c1cnc2n(c1=O)CCC=C2Nc1ccccc1
10 | 137 to 139 | Cn1c(-c2ccccc2F)n[nH]c1=S
11 | 123 to 125 | Nc1cccnc1NCc1ccc(Cl)cc1
12 | 136 to 137 | CCc1ccc2ncc(NC(=O)C=Cc3cc(OC)c(OC(C)=O)c(OC)c3)c(-c3ccccc3Cl)c2c1
13 | 193 to 196 | CNS(=O)(=O)N1CCn2c(c(C(N)=O)c(Cl)c2-c2ccccc2)C1
14 | 180 to 182 | CCC(=O)c1cc(C(=O)O)c(=O)[nH]c1CC
15 | 258 to 260 | CC(C)(C(=O)O)n1c(=O)[nH]c2cccc(F)c2c1=O
16 | 233 | Cn1nc2c(sc3ccccc32)c1N
17 | 164 to 165 | CNc1nc(C)c(C(C)=O)s1
18 | 79 to 81 | CCCCCCCCCCc1ccnc(C(=O)NCC(=O)O)c1
19 | 219 to 220 | Nc1nc(N)c2ncn(/C=C3/CC3(CO)CO)c2n1
20 | 87 to 89 | Cn1c(Cl)cnc1C#N
21 | 145 | Oc1cc(Cl)c(OCc2ccc(F)c(Oc3ccccc3)c2)c(Cl)c1
22 | 60 to 62 | CC(C)C[C@@H](OS(=O)(=O)c1ccc([N+](=O)[O-])cc1)C(=O)O
23 | 63 to 65 | CN(C)C(=O)COc1ccc(I)cc1
24 | 231 | O=c1ccc(-c2ccc(Cc3nn[nH]n3)cc2)cn1Cc1ccc(Cl)cc1
25 | 144 to 145 | COC(=O)Cc1nc(-c2ccc(OC)c(OC)c2)c2cc(Cl)ccc2n1
26 | 155 to 158 | COc1ccc2cccc(N3CCN(CCCCOc4ccc5c(n4)NC(=O)NCC5)CC3)c2c1

Row | melting point [°C] | Structure (SMILES)
27 | 247 | OC1(c2cccc(Cl)c2)CCN(c2nc3ccc(C(F)(F)F)cc3[nH]2)CC1
28 | 128 to 130 | CCCCc1nc2c(N)nc(C)c(C)c2n1CC(C)(C)NC(=O)NC1CCCCC1
29 | 132 to 133 | C=CCn1c(NC)nn(C(=O)Nc2ccccc2)c1=S
30 | 90 to 91 | CCOC(=O)COc1ccc(Oc2ccc([N+](=O)[O-])cc2)c(Cl)c1Cl
31 | 154 to 155 | CC(C)c1nnn(-c2c(Cl)cccc2Cl)c1CO
32 | 154 to 155 | ON=Cc1ccc2c(c1)ncn2-c1cccc(COCc2ccccn2)c1
33 | 117 to 120 | COc1ccc(C(=O)c2ccccc2Cl)c(Cl)c1Cl
34 | 176 | CN1CCC(=C2c3cc(Cl)ccc3CCn3ncnc32)CC1
35 | 173 | O=[N+]([O-])c1cccc(Nc2nc(Cl)nc(Cl)n2)c1
36 | 137 | COCOc1ccc(-c2cc(S(C)=O)nn2-c2ccc(OC)cc2)cc1 (configuration not stated)
37 | 183 to 185 | CS(=O)c1nnc2n1C=Cc1cc(Cl)ccc1C2 (configuration not stated)
38 | 225 | Fc1cccc(COc2ccc(Nc3ncnc4sc(C#Cc5ncccn5)cc34)cc2Cl)c1
39 | 155 to 159 | COc1ccc(Nc2nc(Cl)nc(NCCCO)n2)cc1
40 | 74 | COc1ccc(S(=O)(=O)C(C)(Cc2cccc(OCCN3CCCCC3)c2)C(N)=O)cc1 (configuration not stated)
41 | 180 to 183 | COc1c(Cl)ccc(-c2cc(N)c(Cl)c(C(=O)NOC3CCCO3)n2)c1F (configuration not stated)
42 | 119 to 121 | O=C(CCCN1CCN(c2ccccc2Cl)CC1)N1CCc2ccccc21
43 | 219 to 220 | CCOC(=O)c1cc2c(O)nncc2nc1NC(C)C
44 | 185 to 186 | CSc1ncc2c(=O)[nH]c(-c3ccccc3OCC(C)C)nc2n1
45 | > 300 | Cc1nn(-c2ccccn2)c2[nH]c3ccc(C(=O)O)cc3c(=O)c12
46 | 154 to 157 | C[C@@H]1[C@@H](NS(=O)(=O)c2ccc(F)cc2)CN1C(c1ccc(Cl)cc1)c1ccc(Cl)cc1
47 | 98 to 99 | CCOc1cccnc1CSCCN=C(NC#N)SC
48 | 298 to 301 | CC(C)CNC1=NS(=O)(=O)c2ccc(Cl)cc2N1
49 | 93 to 95 | CN(C)c1ccc(CN2C(=O)C3(COc4cc5c(cc43)OCCO5)c3ccccc32)cn1 (configuration not stated)
50 | 83 to 84 | CCc1c(OC)c(Cl)cc(C(N)=O)c1OC
51 | 89 | CC(=O)CC(=O)Nc1ccc(C)cc1C

Second part, the compound before the results:

Row | Structure (SMILES) | melting point [°C]
52 | COc1ccc(N(CCCCO)S(=O)(=O)c2c(F)c(F)c(F)c(F)c2F)cc1 | 88 to 90
53 | Cc1ccsc1C(Cc1ccccc1N)N(C)C=O (configuration not stated) | 111 to 112
54 | O=C(Nc1ccc(CN2C(=O)C3CCCC3N(C(=O)CN3C(=O)c4ccccc4C3=O)c3ccccc32)cc1)Oc1ccccc1 (configuration not stated) | 185 to 187
55 | CNc1ccc(C(C)(C)c2ccc(C(C)(C)c3ccc(NC)cc3)cc2)cc1 | 115 to 122
56 | COc1ccc(OC)c2c1C(=O)c1c(O)ccc(O)c1C2=O | 297 to 300
57 | COc1cc(CC(=O)Nc2nn(-c3ccccc3)cc2C=O)ccc1OCc1nc(-c2ccccc2)oc1C | 156 to 158
58 | COc1ccc(C2C(C(=O)/C=C/c3ccc(OC)c(OC)c3)C(=O)CC(c3ccc(OC)c(OC)c3)C2[N+](=O)[O-])cc1 (configuration not stated) | 158 to 160
59 | CC(C)(C)C1=CC(=CC(=O)O)C=C(C(C)(C)C)C1=O | 148 to 150
60 | CCN(CC)c1ccc(-c2cc(-c3ccc(C(=O)O)cc3)ccc2CCCNC2CC2)cc1C(C)(C)C | 189
61 | COC(=O)[C@@H]1C[C@H](NS(C)(=O)=O)C(=O)[C@H]2[C@@]1(C)CC[C@H]1C(=O)O[C@H](c3ccoc3)C[C@]21C | 262 to 265
62 | CC(C)Cc1ccc(C(C)C(=O)ON(C(N)=O)C(C)c2ccoc2)cc1 (configuration not stated) | 55 to 59
63 | CC(=O)C1C(C)CC2C3CCC4=CCC=CC4(C)C3CCC21C (configuration not stated) | 175
64 | CCCCN[C@@H]1CN(CC)C[C@H]1O (relative stereo) | 57.5 to 59
65 | O=c1c(-c2ccc(F)cc2)c(-c2ccc(SC(F)(F)F)cc2)cnn1Cc1ccccc1 | 145 to 146
66 | CCCCCCCCCCCCCC(c1ccccc1)S(=O)(=O)NC(=O)Nc1c(C(C)C)cccc1C(C)C (configuration not stated) | 97 to 102
67 | COC(=O)CN(NC(N)=O)c1cccc(C)c1 | 68 to 70
68 | Cc1ccccc1C(=NC(=Nc1ccccc1)C1(C)CCCCC1)Nc1ccc(F)cc1 | 210 to 211
69 | C(=C\c1cc(/C=C/c2c[nH]c3ccccc23)n[nH]1)/c1ccc(OCc2ccccn2)cc1 | 196 to 199
70 | CN1C(=O)CC[C@]2(C)c3ccc(Sc4ccc5c([N+](=O)[O-])cccc5n4)cc3CC[C@@H]12 | 149 to 154
71 | O=C1c2cccc(NC(=S)Nc3cccc(Br)n3)c2C2CCCCN12 (configuration not stated) | 195
72 | Cc1ccc(C(=S)C=CC(=O)Nc2c(C)cccc2C)cc1 | 216 to 217
73 | COc1cc(OC)nc(-c2c(C)[nH]c3c(C)cccc23)n1 | 145 to 147
74 | COC(=O)CCC(=O)CBr | 12 to 15
75 | CCC1(CC)c2cc(-c3cc4ccccc4[nH]3)ccc2-c2ccc(N(c3ccccc3)c3ccccc3)cc21 | 102 to 104
76 | CC(=O)OC/C=C(\C)CCc1c(C)c(O)c(C)c(C)c1O | 94.5 to 96
77 | CCCOc1ccc(-c2scc(-c3ccccc3OC(F)(F)F)c2CC(=O)N=C(N)N)cc1 | 90 to 92

Row | Structure (SMILES) | melting point [°C]
78 | CCOC(=O)CC1N(c2c(C)cccc2C)C(=N)C(C)N1c1c(C)cccc1C (configuration not stated) | 116 to 119
79 | CCCNCc1ccc(S(=O)(=O)c2ccc(S(N)(=O)=O)s2)cc1 | 151 to 153
80 | O=C(CCl)Nc1ccc2[nH]c(=O)oc2c1 | 228 to 231
81 | O=C1c2ccccc2CCC1CN1CCC2(CC1)C(=O)NCN2c1ccccc1 (configuration not stated) | 170 to 173
82 | COC(=O)[C@@H]1[C@@H](C(=O)O)[C@H]2C=C[C@@H]1C2 | 78 to 79
83 | CN1CCc2nc3ccc(Cl)cc3c(Cl)c2C1 | 88 to 89
84 | COC(=O)c1ccc(C(=O)NCc2cccc(O)c2)cc1C | 100 to 103
85 | CCN(C)C(C)CN1CCc2c(c(=O)oc3cc(OC)ccc23)C1 (configuration not stated) | 102 to 104
86 | CCCCCCCCCCCCCCCCS(=O)(=O)c1ccc(-n2c(=O)cc(N)n2C(=O)OCC)cc1 | 92
87 | O=C(O)C1Sc2ccccc2-c2ccccc21 (configuration not stated) | 156 to 159
88 | CC(C)(C)OC(=O)[C@H]1CC[C@@H](NC(=O)OCc2ccccc2)CC1 | 73 to 74
89 | O=c1cc(S)sc2cc(N3CCOCC3)ccc12 | > 250
90 | CCOC(NC(=O)c1ccccc1)C(N)=O (configuration not stated) | 148 to 150
91 | CCc1c(-c2ccc(O)cc2)c2ccc3c(NC(C)=O)ccc1n32 | 147 to 149
92 | O=C(NC1C(=O)N(CCCO)c2ccccc2N(c2ccccc2)C1=O)Oc1ccccc1 (configuration not stated) | 203 to 204
93 | Cc1ccc(S(=O)(=O)C(CCCCCc2cccc(C(F)(F)F)c2)C(=O)O)cc1 (configuration not stated) | 62
94 | Cc1ccc(-c2ccccc2C(=O)O)cc1C(=O)NCC1CCCCCC1 | 188 to 189
95 | COc1ccc(C(=O)Nc2ccc3ccc(C)nc3n2)cc1 | 119
96 | O=C(NCCO)c1cccc(-c2ccc3c(c2)C(Oc2ccc(Cl)cc2Cl)CCC3)c1 (configuration not stated) | 171 to 172
97 | CC(=O)C(=[N+]=[N-])C(=O)CCCCCCCCCc1ccc(S(=O)(=O)Cl)cc1 | 48.5 to 50
98 | CC/C(=C\CCC(O)(CC)CC)c1cc(CCc2ccc(CO)c(CO)c2)cs1 | 85 to 86
99 | Cc1nn(C)c2cc(-c3nn(C(C)c4oc5ccccc5c(=O)c4-c4cccc(F)c4)c4ncnc(N)c34)ccc12 (configuration not stated) | 270 to 272
100 | N#CCC1(C#N)CCC2(CC1)OCCO2 | 137
101 | CC(C)=CC(=O)OC(COc1ccc(C(=O)c2ccccc2)c(O)c1)COc1ccc(C(=O)c2ccccc2)c(O)c1 | 148 to 150
102 | CC(C)N1CCC(NC(=O)Nc2ccccc2CCc2cc(C(C)(C)C)c(O)c(C(C)(C)C)c2)CC1 | 191 to 193
